In ChEMBL document CHEMBL4507327 (2021):

Legend:
[1] = biological target: Dual specificity testis-specific protein kinase 2 (Homo sapiens, UniProt Q96S53); assay: TESK2(TES2LGRL) Takeda global kinase panel
[2] = biological target: T1, Muscarinic acetylcholine receptor M2 (Homo sapiens) (UniProt P08172); conditions: Compound concentration 10.0 uM
T1 sequence (whole entry): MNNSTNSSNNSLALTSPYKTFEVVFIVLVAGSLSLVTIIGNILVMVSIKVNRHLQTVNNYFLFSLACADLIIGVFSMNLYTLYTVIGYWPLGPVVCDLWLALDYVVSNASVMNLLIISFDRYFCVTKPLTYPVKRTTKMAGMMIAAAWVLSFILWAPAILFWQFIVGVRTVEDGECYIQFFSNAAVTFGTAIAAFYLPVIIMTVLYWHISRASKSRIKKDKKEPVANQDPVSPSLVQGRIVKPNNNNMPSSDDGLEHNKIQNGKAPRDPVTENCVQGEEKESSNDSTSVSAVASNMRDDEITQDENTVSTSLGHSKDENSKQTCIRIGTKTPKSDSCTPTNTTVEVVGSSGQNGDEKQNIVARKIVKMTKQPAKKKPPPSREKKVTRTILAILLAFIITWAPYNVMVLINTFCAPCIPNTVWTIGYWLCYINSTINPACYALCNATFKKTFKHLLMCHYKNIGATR

[3] = biological target: Ribosomal protein S6 kinase alpha-6 (Homo sapiens, UniProt Q9UK32); assay: RSK4(R6A6LGF1) Takeda global kinase panel
[4] = biological target: Casein kinase I isoform gamma-2 (Homo sapiens, UniProt P78368); assay: CK1gamma2(C1G2LGI1) Takeda global kinase panel
[5] = biological target: Substance-P receptor (Homo sapiens) (UniProt P25103); assay: Inhibition of Tachykinin NK1 at 10 µM in the Eurofins-Panlabs radioligand binding assay (Eurofins_assay_255520); design: ligand concentration 0.8 nM; conditions: Compound concentration 10.0 uM
[6] = biological target: Serine/threonine-protein kinase NLK (Homo sapiens, UniProt Q9UBE8); assay: NLK(NLK1LGI5) Takeda global kinase panel
[7] = biological target: Casein kinase I isoform gamma-1 (Homo sapiens, UniProt Q9HCP0); assay: CK1gamma1(C1G1LGI1) Takeda global kinase panel
[8] = biological target: Cyclin-dependent kinase 14 (Homo sapiens, UniProt O94921); assay: PFTAIRE1(CD14CGS1) Takeda global kinase panel
Ephrin type-A receptor 5 = Ephrin type-A receptor 5 (Homo sapiens, UniProt P54756); assay: EphA5(EPA5MGF1) Takeda global kinase panel
[9] = biological target: Cyclin-dependent kinase 3 (Homo sapiens, UniProt Q00526); assay: CDK3(CDK3CGS1) Takeda global kinase panel
[10] = biological target: Protein kinase C alpha type (Homo sapiens, UniProt P17252); assay: PKCalpha(PRKALGY1) Takeda global kinase panel
[11] = biological target: cAMP-dependent protein kinase catalytic subunit PRKX (Homo sapiens, UniProt P51817); assay: PRKX(PRKXLGH5) Takeda global kinase panel
[12] = biological target: Casein kinase II subunit alpha (Homo sapiens, UniProt P68400); assay: CK2alpha1(C2A1LGF1) Takeda global kinase panel
[13] = biological target: Serine/threonine-protein kinase SIK2 (Homo sapiens, UniProt Q9H0K1); assay: QIK(SIK2LGY1) Takeda global kinase panel
[14] = biological target: Serine/threonine-protein kinase Chk1 (Homo sapiens, UniProt O14757); assay: CHK1(CHE1CGP1) Takeda global kinase panel
[15] = biological target: Vascular endothelial growth factor receptor 1 (Homo sapiens, UniProt P17948); assay: FLT1(FLT1LGC5) Takeda global kinase panel
[16] = biological target: Serine/threonine-protein kinase N1 (Homo sapiens, UniProt Q16512); assay: PKN1 [PRK1(PKN1LGY1)] Takeda global kinase panel
[17] = biological target: Bone morphogenetic protein receptor type-1A (Homo sapiens, UniProt P36894); assay: BMPR1A(BM1APHRG) Takeda global kinase panel
[18] = biological target: Mitogen-activated protein kinase 8 (Homo sapiens, UniProt P45983); assay: JNK1(MAP8LGF1) Takeda global kinase panel
[19] = biological target: Dual specificity protein kinase CLK1 (Homo sapiens, UniProt P49759); assay: CLK1(CLK1LGF1) Takeda global kinase panel
[20] = biological target: Adenosine receptor A1 (Homo sapiens) (UniProt P30542); conditions: Compound concentration 10.0 uM
[21] = biological target: Wee1-like protein kinase 2 (Homo sapiens, UniProt P0C1S8); assay: Wee1B(WE1BLGF1) Takeda global kinase panel
[22] = biological target: Glutamate NMDA receptor (Rattus norvegicus) (UniProt P35439+Q00959+Q00960+Q00961+Q62645+Q8VHN2+Q9R1M7); conditions: Compound concentration 10.0 uM
[23] = biological target: Serine/threonine-protein kinase OSR1 (Homo sapiens, UniProt O95747); assay: OSR1(OXS1LGY1) Takeda global kinase panel
[24] = biological target: Serine/threonine-protein kinase 24 (Homo sapiens, UniProt Q9Y6E0); assay: MST3(ST24LGC1) Takeda global kinase panel
[25] = biological target: STE20-like serine/threonine-protein kinase (Homo sapiens, UniProt Q9H2G2); assay: SLK(SLK1LGRJ) Takeda global kinase panel
[26] = biological target: Tyrosine-protein kinase TXK (Homo sapiens, UniProt P42681); assay: TXK(TXK1CGD5) Takeda global kinase panel
[27] = biological target: Serine/threonine-protein kinase D3 (Homo sapiens, UniProt O94806); assay: PKD3(PRD3LGG5) Takeda global kinase panel
[28] = biological target: Tyrosine-protein kinase FRK (Homo sapiens, UniProt P42685); assay: FRK(FRK1LGF1) Takeda global kinase panel
[29] = biological target: Sodium-dependent noradrenaline transporter (Homo sapiens) (UniProt P23975); conditions: Compound concentration 10.0 uM
[30] = biological target: Serine/threonine-protein kinase 32B (Homo sapiens, UniProt Q9NY57); assay: YANK2(S32BLGY2) Takeda global kinase panel
[31] = biological target: Calcium/calmodulin-dependent protein kinase type 1G (Homo sapiens, UniProt Q96NX5); assay: CaMK1gamma(CA1GLGN1) Takeda global kinase panel
[32] = biological target: Serine/threonine-protein kinase 3 (Homo sapiens, UniProt Q13188); assay: MST2(STK3LGF1) Takeda global kinase panel
[33] = biological target: Ribosomal protein S6 kinase alpha-1 (Homo sapiens, UniProt Q15418); assay: RSK1 [p90RSK(R6A2CGE1)] Takeda global kinase panel
[34] = biological target: Gamma-aminobutyric acid type B receptor subunit 1 (Homo sapiens) (UniProt Q9UBS5); assay: Inhibition of GABAB1A at compound concentration of 10.0 uM in the Eurofins-Panlabs radioligand binding assay (Eurofins_assay_228610); design: ligand concentration 4 nM; conditions: Compound concentration 10.0 uM
[35] = biological target: Tyrosine-protein kinase SYK (Homo sapiens, UniProt P43405); assay: Syk(SYK1LHY1) Takeda global kinase panel
[36] = biological target: Death-associated protein kinase 3 (Homo sapiens, UniProt O43293); assay: DAPK3(DAP3LGP1) Takeda global kinase panel
[37] = biological target: Tyrosine-protein kinase Blk (Homo sapiens, UniProt P51451); assay: BLK(BLK1CGF1) Takeda global kinase panel

Sodium-dependent noradrenaline transporter (Homo sapiens), sequence (P23975 whole entry): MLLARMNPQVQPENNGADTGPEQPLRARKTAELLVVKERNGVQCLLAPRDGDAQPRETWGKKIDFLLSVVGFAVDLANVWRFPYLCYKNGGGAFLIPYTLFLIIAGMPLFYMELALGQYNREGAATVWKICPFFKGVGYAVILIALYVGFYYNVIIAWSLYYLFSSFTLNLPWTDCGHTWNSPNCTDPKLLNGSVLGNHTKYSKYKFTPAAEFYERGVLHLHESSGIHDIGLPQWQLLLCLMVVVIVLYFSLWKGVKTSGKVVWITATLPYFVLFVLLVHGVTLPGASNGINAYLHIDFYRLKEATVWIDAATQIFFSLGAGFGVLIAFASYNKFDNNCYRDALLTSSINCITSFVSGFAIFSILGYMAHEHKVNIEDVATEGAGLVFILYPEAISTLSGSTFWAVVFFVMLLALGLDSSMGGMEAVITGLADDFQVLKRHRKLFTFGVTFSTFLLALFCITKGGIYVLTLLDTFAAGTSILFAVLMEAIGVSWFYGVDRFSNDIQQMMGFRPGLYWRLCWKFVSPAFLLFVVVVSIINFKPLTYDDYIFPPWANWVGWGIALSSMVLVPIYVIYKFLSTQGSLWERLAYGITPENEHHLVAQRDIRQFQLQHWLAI
Casein kinase II subunit alpha, sequence (P68400 whole entry): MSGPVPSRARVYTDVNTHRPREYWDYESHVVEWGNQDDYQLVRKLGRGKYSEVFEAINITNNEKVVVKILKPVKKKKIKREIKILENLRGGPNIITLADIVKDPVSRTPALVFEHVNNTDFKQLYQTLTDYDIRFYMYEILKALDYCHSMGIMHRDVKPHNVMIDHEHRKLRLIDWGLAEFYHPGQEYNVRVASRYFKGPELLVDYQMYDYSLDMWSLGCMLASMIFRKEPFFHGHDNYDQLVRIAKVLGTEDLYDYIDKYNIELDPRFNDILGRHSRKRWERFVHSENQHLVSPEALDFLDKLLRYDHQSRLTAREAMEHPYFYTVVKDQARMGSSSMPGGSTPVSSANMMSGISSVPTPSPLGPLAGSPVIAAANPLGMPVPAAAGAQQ
Serine/threonine-protein kinase NLK, sequence (Q9UBE8 whole entry, canonical isoform): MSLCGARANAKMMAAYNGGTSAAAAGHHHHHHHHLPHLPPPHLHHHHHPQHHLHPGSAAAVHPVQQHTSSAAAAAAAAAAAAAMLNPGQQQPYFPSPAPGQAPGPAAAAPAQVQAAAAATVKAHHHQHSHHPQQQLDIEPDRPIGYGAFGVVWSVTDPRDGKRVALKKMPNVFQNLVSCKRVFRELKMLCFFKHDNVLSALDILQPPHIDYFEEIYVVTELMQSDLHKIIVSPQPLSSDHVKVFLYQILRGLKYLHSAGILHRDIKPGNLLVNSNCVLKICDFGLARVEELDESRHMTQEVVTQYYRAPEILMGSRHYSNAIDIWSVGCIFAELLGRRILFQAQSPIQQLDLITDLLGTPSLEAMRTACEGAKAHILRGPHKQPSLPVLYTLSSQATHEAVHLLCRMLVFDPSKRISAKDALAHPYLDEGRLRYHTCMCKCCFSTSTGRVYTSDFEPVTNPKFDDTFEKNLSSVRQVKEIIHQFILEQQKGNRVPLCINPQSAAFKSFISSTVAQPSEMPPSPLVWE
Ribosomal protein S6 kinase alpha-1, sequence (Q15418 whole entry): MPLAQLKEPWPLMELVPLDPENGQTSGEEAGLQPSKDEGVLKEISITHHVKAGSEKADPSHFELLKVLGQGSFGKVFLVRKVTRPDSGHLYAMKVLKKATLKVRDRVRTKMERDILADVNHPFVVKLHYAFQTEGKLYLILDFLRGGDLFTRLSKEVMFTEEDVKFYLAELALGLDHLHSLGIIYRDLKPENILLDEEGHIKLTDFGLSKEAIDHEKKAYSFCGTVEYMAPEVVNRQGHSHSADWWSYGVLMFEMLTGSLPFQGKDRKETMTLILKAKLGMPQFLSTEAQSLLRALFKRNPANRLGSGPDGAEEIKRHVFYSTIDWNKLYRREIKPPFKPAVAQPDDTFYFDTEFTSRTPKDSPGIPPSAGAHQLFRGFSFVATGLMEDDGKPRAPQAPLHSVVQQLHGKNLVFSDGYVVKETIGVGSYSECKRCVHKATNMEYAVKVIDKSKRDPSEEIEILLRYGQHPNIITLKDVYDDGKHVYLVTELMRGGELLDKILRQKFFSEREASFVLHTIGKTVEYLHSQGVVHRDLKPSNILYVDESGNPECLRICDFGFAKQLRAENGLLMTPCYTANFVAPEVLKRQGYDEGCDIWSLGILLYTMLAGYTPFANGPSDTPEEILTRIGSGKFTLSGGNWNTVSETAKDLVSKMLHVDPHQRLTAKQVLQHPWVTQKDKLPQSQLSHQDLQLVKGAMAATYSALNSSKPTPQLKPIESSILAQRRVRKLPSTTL
Cyclin-dependent kinase 3, sequence (Q00526 whole entry): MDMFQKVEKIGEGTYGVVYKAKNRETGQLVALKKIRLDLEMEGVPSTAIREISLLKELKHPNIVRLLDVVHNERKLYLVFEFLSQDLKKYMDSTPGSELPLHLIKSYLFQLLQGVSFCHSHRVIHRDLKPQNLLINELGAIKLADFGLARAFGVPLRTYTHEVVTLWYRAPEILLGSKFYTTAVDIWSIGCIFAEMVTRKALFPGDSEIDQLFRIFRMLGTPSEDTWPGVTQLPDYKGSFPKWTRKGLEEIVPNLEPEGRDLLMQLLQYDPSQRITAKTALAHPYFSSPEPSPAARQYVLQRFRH
Ephrin type-A receptor 5, sequence (P54756 whole entry): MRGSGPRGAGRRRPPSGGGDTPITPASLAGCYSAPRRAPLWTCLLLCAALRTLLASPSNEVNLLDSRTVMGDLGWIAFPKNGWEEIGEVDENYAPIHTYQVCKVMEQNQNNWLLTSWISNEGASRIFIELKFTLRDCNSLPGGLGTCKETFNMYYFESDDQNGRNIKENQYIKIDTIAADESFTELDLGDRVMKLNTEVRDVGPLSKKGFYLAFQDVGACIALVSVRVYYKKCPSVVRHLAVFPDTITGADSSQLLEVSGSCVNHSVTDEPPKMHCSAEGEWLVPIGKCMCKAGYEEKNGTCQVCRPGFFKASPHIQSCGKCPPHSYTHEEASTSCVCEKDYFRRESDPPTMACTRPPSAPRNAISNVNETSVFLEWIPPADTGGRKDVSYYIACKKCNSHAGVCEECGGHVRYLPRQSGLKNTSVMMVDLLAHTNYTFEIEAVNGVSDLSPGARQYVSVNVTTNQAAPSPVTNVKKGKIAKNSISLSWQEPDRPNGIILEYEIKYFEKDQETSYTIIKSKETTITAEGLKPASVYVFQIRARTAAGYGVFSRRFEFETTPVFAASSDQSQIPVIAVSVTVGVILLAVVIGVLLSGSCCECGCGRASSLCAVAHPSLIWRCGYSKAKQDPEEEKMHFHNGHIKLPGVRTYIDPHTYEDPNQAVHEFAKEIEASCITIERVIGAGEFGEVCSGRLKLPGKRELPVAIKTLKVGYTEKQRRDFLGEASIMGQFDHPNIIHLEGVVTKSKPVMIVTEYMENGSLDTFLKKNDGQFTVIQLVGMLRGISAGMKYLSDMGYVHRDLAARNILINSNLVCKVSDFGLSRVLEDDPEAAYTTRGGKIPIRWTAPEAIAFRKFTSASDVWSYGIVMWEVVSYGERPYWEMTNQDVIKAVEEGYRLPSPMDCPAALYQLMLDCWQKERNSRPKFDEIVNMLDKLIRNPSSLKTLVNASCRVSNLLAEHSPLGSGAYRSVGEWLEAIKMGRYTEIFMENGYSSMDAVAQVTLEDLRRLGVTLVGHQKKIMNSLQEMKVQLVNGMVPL
Wee1-like protein kinase 2, sequence (P0C1S8 whole entry): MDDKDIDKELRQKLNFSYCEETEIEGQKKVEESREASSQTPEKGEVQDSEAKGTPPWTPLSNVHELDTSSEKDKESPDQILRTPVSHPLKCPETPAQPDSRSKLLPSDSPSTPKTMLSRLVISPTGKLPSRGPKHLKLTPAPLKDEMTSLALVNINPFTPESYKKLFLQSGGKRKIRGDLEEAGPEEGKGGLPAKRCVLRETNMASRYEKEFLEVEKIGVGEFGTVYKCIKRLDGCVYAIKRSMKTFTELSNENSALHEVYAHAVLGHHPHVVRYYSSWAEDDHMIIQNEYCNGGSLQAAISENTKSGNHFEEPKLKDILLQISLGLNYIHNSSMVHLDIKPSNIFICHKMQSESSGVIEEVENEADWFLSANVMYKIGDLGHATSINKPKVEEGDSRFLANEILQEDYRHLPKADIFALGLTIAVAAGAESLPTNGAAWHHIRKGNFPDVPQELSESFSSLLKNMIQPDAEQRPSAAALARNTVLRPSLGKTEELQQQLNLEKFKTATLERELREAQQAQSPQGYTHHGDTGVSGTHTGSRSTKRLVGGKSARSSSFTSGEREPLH
Tyrosine-protein kinase FRK, sequence (P42685 whole entry): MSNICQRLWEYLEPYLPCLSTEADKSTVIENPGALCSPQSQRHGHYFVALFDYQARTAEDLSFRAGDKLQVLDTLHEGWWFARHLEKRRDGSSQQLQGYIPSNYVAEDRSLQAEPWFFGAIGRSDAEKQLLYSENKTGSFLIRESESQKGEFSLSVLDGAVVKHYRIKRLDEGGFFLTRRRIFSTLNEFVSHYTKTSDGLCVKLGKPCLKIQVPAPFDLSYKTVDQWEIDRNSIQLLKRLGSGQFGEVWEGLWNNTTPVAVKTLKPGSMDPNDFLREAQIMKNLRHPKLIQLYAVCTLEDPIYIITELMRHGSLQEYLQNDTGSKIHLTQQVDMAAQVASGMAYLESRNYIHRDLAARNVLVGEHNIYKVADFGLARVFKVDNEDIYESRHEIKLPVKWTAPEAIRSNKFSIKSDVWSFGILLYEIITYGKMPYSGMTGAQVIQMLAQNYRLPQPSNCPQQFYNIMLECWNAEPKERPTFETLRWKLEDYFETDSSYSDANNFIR
Adenosine receptor A1 (Homo sapiens), sequence (P30542 whole entry): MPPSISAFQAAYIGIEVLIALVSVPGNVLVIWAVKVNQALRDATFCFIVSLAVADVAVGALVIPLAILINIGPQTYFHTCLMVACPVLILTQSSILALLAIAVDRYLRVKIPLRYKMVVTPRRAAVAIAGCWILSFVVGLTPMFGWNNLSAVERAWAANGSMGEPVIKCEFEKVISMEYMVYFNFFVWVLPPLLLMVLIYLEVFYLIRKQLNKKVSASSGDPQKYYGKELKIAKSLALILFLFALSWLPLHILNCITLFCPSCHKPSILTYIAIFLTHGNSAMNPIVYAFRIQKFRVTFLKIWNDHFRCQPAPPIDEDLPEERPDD

SMILES	IC50 [1] [nM]	inhibition [2] [%]	IC50 [3] [nM]	IC50 [4] [nM]	inhibition [5] [%]	IC50 [6] [nM]	IC50 [7] [nM]	IC50 [8] [nM]	IC50 (Ephrin type-A receptor 5) [nM]	IC50 [9] [nM]	IC50 [10] [nM]	IC50 [11] [nM]	IC50 [12] [nM]	IC50 [13] [nM]	IC50 [14] [nM]	IC50 [15] [nM]	IC50 [16] [nM]	IC50 [17] [nM]	IC50 [18] [nM]	IC50 [19] [nM]	also measured
CN1C(=O)[C@@H](N2CCc3cn(Cc4ccccc4)nc3C2=O)COc2ccccc21 [TP-030-1]	1000	-4	1000	1000	29	1000	1000	1000	1000	1000	1000	1000	1000	1000	1000	1000	1000	1000	1000	1000	inhibition [20]: 7%; IC50 [21]: 1000 nM; inhibition [22]: 0%; IC50 [23]: 1000 nM; IC50 [24]: 1000 nM; IC50 [25]: 1000 nM; IC50 [26]: 1000 nM; IC50 [27]: 1000 nM; IC50 [28]: 1000 nM; inhibition [29]: 15%; IC50 [30]: 1000 nM; IC50 [31]: 1000 nM; IC50 [32]: 1000 nM; IC50 [33]: 1000 nM; inhibition [34]: 0%; IC50 [35]: 1000 nM; IC50 [36]: 1000 nM; IC50 [37]: 1000 nM
CN1C(=O)[C@@H](N2CCc3cn(CC4CCS(=O)(=O)CC4)nc3C2=O)COc2ccccc21 [TP-030n]	1000	9	1000	1000	14	1000	1000	1000	1000	1000	1000	1000	1000	1000	1000	1000	1000	1000	1000	1000	inhibition [20]: -2%; IC50 [21]: 1000 nM; inhibition [22]: -2%; IC50 [23]: 1000 nM; IC50 [24]: 1000 nM; IC50 [25]: 1000 nM; IC50 [26]: 1000 nM; IC50 [27]: 1000 nM; IC50 [28]: 1000 nM; inhibition [29]: 3%; IC50 [30]: 1000 nM; IC50 [31]: 1000 nM; IC50 [32]: 1000 nM; IC50 [33]: 1000 nM; inhibition [34]: -6%; IC50 [35]: 1000 nM; IC50 [36]: 1000 nM; IC50 [37]: 1000 nM
